Results as given in patent publication US20260266837A1, “Methods for Cancer Recurrence Detection and Treatment Thereof” (Institut Curie, priority 2022, published 2026).

Experiments:
[1] = system: MDA-MB-468 untreated and chemoresistant cells; test: XTT cell cytotoxicity, IC50 to 5-FU; assay type: cell-based, human; conditions: resistant cells after over 15 weeks of 5-FU, 72 h XTT
Description: MDA-MB-468 untreated and chemoresistant cells were plated in 96 multi-well plates at a density of 10,000 cells per well and treated with increased concentration of 5-FU (1 μM to 0.5M) for 72 h. Cell cytotoxicity was assayed with XTT kit (Sigma, Ref: 11465015001) and IC 50 was calculated as the concentration of 5-FU that is required to obtain 50% of cell viability (Extended FIG. 2b).

MDA-MB-468 [2] = test: Prolonged 5-FU treatment, cell proliferation and survival; assay type: cell-based, human
Description: (§1) Cell lines, culture conditions and drug treatments. MDA-MB-468 cells were cultured in DMEM (Gibco-BRL, Ref: 11966025), supplemented with 10% heat-inactivated fetal calf serum (Gibco-BRL, Ref: 10270-106). HCC38 and BT20 cell lines were cultured in RPMI 1640 (Gibco-BRL, Ref: 11875085), supplemented with 10% heat-inactivated fetal calf serum. […] Cells were treated with 5 μM of 5-FU (Sigma, Ref: F6627) alone or in combination with KDM6A/Bi or EZH2i for indicated days. For EZH2i, cells were pretreated with UNC 1999, UNC 2400 or GSK 126 for 10 days before the addition of 5-FU for an additional 21 days (FIG. 4 and Extended FIG. 8).

[3] = system: patient-derived xenograft (PDX) models PDX_95, PDX_39 & PDX_172 established from patients with residual TNBC; test: Capecitabine treatment of TNBC patient-derived xenograft models; assay type: in vivo, mice; conditions: oral Capecitabine
Text: Patient samples and PDX models. Patient samples used in this study (n=9) originated from patient treated at Institut Curie with residual triple-negative breast cancers post-neoadjuvant chemotherapy, who gave informed consent for the profiling. In this study, we used three xenograft models generated from three different residual triple-negative breast cancers post-neoadjuvant chemotherapy (HBCx95 called PDX_95, HBCx39 called PDX_39 and HBCx172 called PDX_172 in the manuscript, see Extended Table2) established previously at Curie Institute with informed consent from the patient^46,47. Female Swiss nude mice were purchased from Charles River Laboratories and maintained under specific-pathogen-free conditions. Mouse care and housing were in accordance with institutional guidelines and the rules of the French Ethics Committee (project authorization no. 02163.02).
FIG. 1b: Five mice were not treated and kept as controls (termed “untreated”) and twenty-seven mice were treated orally with Capecitabine (Xeloda; Roche Laboratories) at a dose of 540 mg/kg, 5 d/week for 6 to 14 weeks. Relative tumor volumes (mm3) were measured as described previously^18. Eight mice were sacrificed after the first round of chemotherapy to study “residual” tumors (2 mice) or “persister” (6 mice) human tumor cells. […]

[4] = system: MDA-MB-468, BT20 and HCC38; test: Number of persister cells after EZH2i pre-treatment and 5-FU; assay type: cell-based, human; conditions: 10 days pre-treatment, then 5-FU for 21 days
Description: Cell lines, culture conditions and drug treatments. […] All cell lines were cultured in a humidified 5% CO2 atmosphere at 37° C., and were tested as mycoplasma negative. […] Cells were treated with 5 μM of 5-FU (Sigma, Ref: […]) alone or in combination with KDM6A/Bi or EZH2i for indicated days. […] Cell proliferation, doubling time and IC50. MDA-MB-468, HCC38 and BT20 cells were stained with Trypan Blue (Invitrogen, Ref: T10282) exclusion test, and counted using a Countess automated cell counter (Invitrogen, Ref: C10228) at indicated time of treatment (FIG. 4a and Extended FIG. 8a/d/f).

MDA-MB-468 cells = test: Lineage barcode frequencies and diversity under 5-FU with EZH2i; assay type: cell-based, human; conditions: co-treatment with 5-FU, bulk lineage barcodes
Text: Lentivirus packaging and cell transduction. Lentivirus was produced by transfecting the barcode plasmids pRRL-CMV-GFP-BCv2Ascl and p8.9-QV and pVSVG into HEK293T cells as previously described^30. MDA-MB-468 cells from ATCC were infected at passage 11 with lentivirus produced from the barcode library (pRRL-CMV-GFP-BCv 2Ascl) which includes 18206 different barcodes of 20 bp of a random stretch, at a low multiplicity of infection (MOI 0.1) to minimize the number of cells marked by multiple barcodes. Three weeks after transduction, cells were sorted for GFP expression to select cells with barcode insertion, and used for drug treatment.
Bulk lineage barcode library preparation and sequencing. Lineage barcodes are recovered by isolating genomic DNA from cells of interest (NucleoSpin Tissue, Mini kit for DNA from cells and tissue, Macherey Nagel, Ref: 740952.50). From the isolated genomic DNA, barcodes are amplified with three nested PCR steps as decribed in^30 (see Extended Table 1 for primer sequence). In short, after a first specific PCR for the common region of the lineage barcodes, the amplified material was prepared for sequencing by addition of the illumina sequencing adaptaters and indexing and purification. Sequencing was done in order to obtain 50 reads, on average, per barcoded cell.
Single-cell lineage barcode extraction from 10× datasets. […] To avoid running scripts on all reads we: 1. used samtools to extract all unmapped reads from the 10× output bam file, 2. used awk to take reads with either a 3′ or 5′ 20 bp match to the constant flanking region of the barcode allowing one mismatch, 3. retained only reads with both a 10× cell barcode and 10× UMI. We then located the 20 bp match to one of the constant flanking regions allowing one mismatch (but filtered out reads where a mismatch was in the first or last base to ensure the barcode is at the expected position). We then further required a 4 bp exact match on the other side of the barcode, and then extracted the 20 bp viral barcode, read name, 10× cell barcode and 10× UMI.
To assign one viral barcode to each 10× cell barcode, we determined a consensus viral barcode for each UMI. For each position in the barcode we returned the most frequently observed base and the proportion of reads supporting this consensus. Barcodes associated with a 10× CB-UMI pair were filtered if the proportion of reads supporting a position was ≤0.5 at ≥3 positions. […]
Bulk barcode pre-processing. […] In brief, using R-3.4.0 (R Development Core Team (2019) http://www.R-project.org), raw reads were first filtered for perfect to the input index-and common-sequences using XCALIBR (https://github.com/NKI-GCF/xcalibr) and filtered against the barcode reference list. […]

H3K27me3, EZH2 = molecular target: T1, H3K27me3, EZH2 (Homo sapiens, UniProt Q15910); test: Western blotting of EZH2i-treated cells; assay type: cell-based; conditions: prior to chemotherapy treatment
T1 construct: endogenous in cells; host or cells: MDA-MB-468, HCC38 or BT20
Description: Western blotting. In Extended FIG. 8b/e/g, DMSO- and EZH2i-treated cells were lysed at 95° C. for 10 minutes in Laemmli buffer (50 mM Tris-HCl [pH 6.8], 2% SDS, 5% glycerol, 2 mM DTT, 2.5 mM EDTA, 2.5 mM EGTA, 4 mM Sodium Orthovanadate, 20 mM Sodium Fluoride, protease inhibitors, phosphatase inhibitors) and proteins concentrations were measured using a Pierce BCA protein Assay Kit (Thermo Fisher Scientific, Ref: 23225/23227). 10 μg of proteins were then separated on a 4-15% Mini-PROTEAN TGX Stain-Free Gel (Bio-Rad, Ref: 4568085) at 160V. After transfer, the membrane was blocked for 1 h at room temperature in PBS pH 7.4 containing 0.1% Tween-20 and 1% milk (Regilait). Incubation anti-H3K27me3 (Dilution: 1:2000, Cell Signaling, Ref: 9733) or EZH2 (Dilution: 1:2000, Cell Signaling, Ref: 5246) or Tubulin (Dilution: 1:1000, Thermo Fisher Scientific, Ref: 31460) primary antibodies diluted in PBS pH 7.4, 0.1% Tween-20 were performed at 4° C. overnight.

tumors in mice = test: Capecitabine and GSK-J4 treatment of mice, tumor volume and disease-free survival; assay type: in vivo
Description: FIG. 5c: Five mice were treated intraperitoneally with DMSO, five mice were treated intraperitoneally with GSK-J4 alone at a dose of 50 mg/kg, 5 d/week for 25 days. Twenty-five mice were treated orally with Capecitabine at a dose of 540 mg/kg, 5 d/week for 36 days and twenty-five mice were co-treated with Capecitabine and GSK-J4 for 36 days. Tumor volumes (mm3) were measured to follow recurrence. FIG. 5d: Disease-free survival was defined as the number of days between the observation of a complete response (relative tumor volume RTV compared to volume at onset of treatment<0.2) after the first round of Capecitabine treatment, and the appearance of a recurrent tumor (RTV>3). Statistical analysis was performed using a log-rank test.

BT20 and HCC38 = test: Colony forming assay, 5-FU with KDM6A/Bi, additional TNBC cell lines; assay type: cell-based, human; conditions: BT20 and HCC38, 5-FU
Description: as §1, with “serum. All cell lines were cultured in a humidified 5% CO2 atmosphere at 37° C., and were tested as mycoplasma negative.” for “serum.”
(§2) Colony forming assay. TBNC cells were plated in 6 multi-well plates at a density of 200,000 cells per well and treated with the indicated drugs for 60 days (MDA-MB-468, FIG. 5a/b and Extended FIG. 9b) or 56 days (BT20) or 50 days (HCC38) (Extended FIG. 9). Cultures were incubated in humidified 37° C. incubators with an atmosphere of 5% CO2 in air, and treated plates were monitored for growth using a microscope. At the time of maximum foci formation, colony formation was evaluated after a staining with 0.5% Crystal Violet (Sigma, ref: C 3886).

MDA-MB-468 [5] = test: Colony forming assay and persister cell count, 5-FU with KDM6A/Bi; assay type: cell-based, human
Description: as §1, with “serum. All cell lines were cultured in a humidified 5% CO2 atmosphere at 37° C., and were tested as mycoplasma negative.” for “serum.”
as §2

T1 sequence (Q15910 whole entry): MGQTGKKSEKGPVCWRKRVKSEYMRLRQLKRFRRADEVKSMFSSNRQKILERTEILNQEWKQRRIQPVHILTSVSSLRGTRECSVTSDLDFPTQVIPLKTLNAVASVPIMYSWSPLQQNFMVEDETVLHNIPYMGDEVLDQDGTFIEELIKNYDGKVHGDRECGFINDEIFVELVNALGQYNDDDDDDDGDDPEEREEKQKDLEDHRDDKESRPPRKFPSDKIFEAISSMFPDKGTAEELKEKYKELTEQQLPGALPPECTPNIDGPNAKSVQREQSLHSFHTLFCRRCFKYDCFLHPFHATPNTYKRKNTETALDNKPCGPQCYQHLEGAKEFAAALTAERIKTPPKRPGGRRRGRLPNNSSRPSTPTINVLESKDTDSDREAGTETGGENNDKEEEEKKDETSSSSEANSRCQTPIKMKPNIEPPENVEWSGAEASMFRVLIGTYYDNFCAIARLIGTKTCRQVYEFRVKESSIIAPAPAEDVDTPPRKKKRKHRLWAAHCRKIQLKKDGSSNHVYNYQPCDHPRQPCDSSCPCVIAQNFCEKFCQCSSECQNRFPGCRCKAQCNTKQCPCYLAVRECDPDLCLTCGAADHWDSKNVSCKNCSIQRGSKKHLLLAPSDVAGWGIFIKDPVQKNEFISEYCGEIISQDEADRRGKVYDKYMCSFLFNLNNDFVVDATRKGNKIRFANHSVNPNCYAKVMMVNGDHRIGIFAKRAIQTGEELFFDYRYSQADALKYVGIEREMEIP
T1 sequence (O75530 whole entry partner): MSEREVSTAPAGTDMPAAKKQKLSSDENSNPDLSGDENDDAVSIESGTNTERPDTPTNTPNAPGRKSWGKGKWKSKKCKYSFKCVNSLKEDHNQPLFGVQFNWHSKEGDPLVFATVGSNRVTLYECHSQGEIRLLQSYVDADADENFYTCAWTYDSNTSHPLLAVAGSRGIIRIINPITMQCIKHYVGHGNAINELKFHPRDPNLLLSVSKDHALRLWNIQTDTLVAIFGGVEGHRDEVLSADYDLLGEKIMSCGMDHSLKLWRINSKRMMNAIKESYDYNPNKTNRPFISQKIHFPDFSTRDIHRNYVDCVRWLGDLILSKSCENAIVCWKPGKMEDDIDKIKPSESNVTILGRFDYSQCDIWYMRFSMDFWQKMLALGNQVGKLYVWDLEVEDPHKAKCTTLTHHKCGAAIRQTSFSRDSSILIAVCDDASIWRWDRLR
T1 sequence (Q15022 whole entry partner): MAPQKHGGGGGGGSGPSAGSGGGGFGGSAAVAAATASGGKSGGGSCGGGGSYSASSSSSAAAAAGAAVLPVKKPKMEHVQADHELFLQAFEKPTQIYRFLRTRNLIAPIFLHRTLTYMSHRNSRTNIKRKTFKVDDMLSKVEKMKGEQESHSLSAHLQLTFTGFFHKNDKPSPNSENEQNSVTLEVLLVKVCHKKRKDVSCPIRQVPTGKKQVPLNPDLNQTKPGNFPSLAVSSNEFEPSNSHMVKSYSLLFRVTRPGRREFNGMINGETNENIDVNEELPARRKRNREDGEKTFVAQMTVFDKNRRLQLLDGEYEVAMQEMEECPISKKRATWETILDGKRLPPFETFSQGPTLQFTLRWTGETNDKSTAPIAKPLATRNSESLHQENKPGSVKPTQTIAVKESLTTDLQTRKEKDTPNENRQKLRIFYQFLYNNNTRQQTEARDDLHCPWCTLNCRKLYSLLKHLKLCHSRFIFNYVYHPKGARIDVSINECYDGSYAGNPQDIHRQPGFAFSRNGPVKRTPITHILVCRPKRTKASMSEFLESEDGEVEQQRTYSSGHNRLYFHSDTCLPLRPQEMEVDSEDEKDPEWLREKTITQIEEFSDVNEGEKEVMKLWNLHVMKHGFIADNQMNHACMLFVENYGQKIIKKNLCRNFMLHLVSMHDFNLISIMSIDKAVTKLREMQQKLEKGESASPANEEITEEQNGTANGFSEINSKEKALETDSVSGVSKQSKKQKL

O=c1[nH]cc(F)c(=O)[nH]1 [5-FU, Fluorouracil]
IC50 to 5-FU of resistant cells relative to untreated population [1]: over 4 fold
cells surviving drug insult (MDA-MB-468 [2]; MDA-MB-468, 5-FU, after 3 weeks): 0.01 % of the initial population
time until surviving cells started proliferating again under chemotherapy (MDA-MB-468 [2]; MDA-MB-468 persister cells under 5-FU): 10 to 15 days

CCCCCOC(=O)Nc1nc(=O)n([C@@H]2O[C@H](C)[C@@H](O)[C@H]2O)cc1F [Capecitabine]
tumor response to first round of chemotherapy [3]: mice displayed a pathological complete response (pCR), but tumors eventually recurred

CC[C@H](C)n1cc(C)c2c(C(=O)NCc3c(C)cc(C)[nH]c3=O)cc(-c3ccc(N4CCNCC4)nc3)cc21 [EZH2i-2]
number of persister cells [4]: increased the number of persister cells
correlation scores between lineage frequencies in 5-FU and DMSO treated population (MDA-MB-468 cells): increased correlation scores
EZH2 protein levels (H3K27me3, EZH2): without perturbing EZH2 protein levels
H3K27me3 level (H3K27me3, EZH2): erasing H3K27me3

CCOC(=O)CCNc1cc(N2CCc3ccccc3CC2)nc(-c2ccccn2)n1 [GSK-J4]
toxicity for the mice (tumors in mice; GSK-J4 50 mg/kg intraperitoneally): nor was toxic for the mice
tumor progression in absence of chemotherapy (tumors in mice; GSK-J4 alone, 50 mg/kg intraperitoneally): did not inhibit tumor progression
delay to recurrence (disease-free survival) (tumors in mice; in combination with Capecitabine versus Capecitabine alone, n=25 each, p=4.0e-2): significantly increased the delay to recurrence
confirmation of KDM6i effects on persister cells (BT20 and HCC38): confirmed
effect when administered once persister cells have emerged (MDA-MB-468 [5]; added after onset of 5-FU rather than in combination): inefficient
number of persisters at day 21 (MDA-MB-468 [5]; co-treatment with 5-FU): decrease in the number of persisters
growth of persister cells under 5-FU at day 60 (MDA-MB-468 [5]; co-treatment with 5-FU, colony forming assay): completely abolished the growth of persister cells
effect on untreated cancer cells (MDA-MB-468 [5]; without 5-FU): no effect on untreated cancer cells

CCCc1cc(C)n(C)c(=O)c1CN(C)C(=O)c1cc(-c2ccc(N3CCN(C(C)C)CC3)nc2)cc2c1cnn2C(C)C [UNC240034]
number of persister cells [4]: no effect
correlation scores between lineage frequencies in 5-FU and DMSO treated population (MDA-MB-468 cells): no effect on lineage frequencies
